# Experimental data as given in US11793879B2, “Monolithic composition for dual-rate release with high drug loading” (priority 2016, dated 2023).
# Conditions: for immediate release / immediate release (amount): Example 5 monolithic tablet (900 mg acetaminophen + 100 mg caffeine), after 30 minutes in SGF
# Method: The dissolution kinetic assay is followed with a Distek™ apparatus according to the paddle method from USP-32, with slight modification. Indeed, the monolithic tablets are placed in 750 mL of simulated gastric fluid (SGF, pH 1.5) during 30 minutes, at 37° C. Thereafter, a volume of 250 mL of sodium tripolyphosphate 0.20 M is added directly in SGF to neutralize the gastric acidity for pH values of about 6.8-7.0 which constituted the pH of simulated intestinal fluid (SIF).
# At different intervals of 30 minutes, an aliquot of 1 mL of dissolution fluid is withdrawn from dissolution media, filtered and properly diluted (approximately 1/50). The absorbency is measured with an UV spectrometer (Lambda-40 Spectrometer, Perkin Elmer) at 247 nm.
# The Carboxymethyl starch is prepared according to the process of the present invention. […] For acetaminophen, the absorbency of samples is measured with an UV spectrometer at 247 nm. For caffeine, the dosage is carried out by HPLC according to method described by Hassouna et al. (Hassouna, M. E. M, Issa, Y. M. and Zayed, A. G. 2012. J. Appl. Pharm. Sci., 02, 52-59)
"immediate release of Acetaminophen (amount) (Example 4 monolithic tablet (1000 mg acetaminophen), after 45 minutes (30 minutes in SGF and 15 minutes in SIF)) [mg]","immediate release of Acetaminophen (Example 4 monolithic tablet (1000 mg acetaminophen, carboxymethyl starch excipient), after 45 minutes (30 minutes in SGF pH 1.5 and 15 minutes in SIF), 37° C., FIG. 2) [%]",SMILES,immediate release [%],immediate release (amount) [mg]
~600,~60,CC(=O)Nc1ccc(O)cc1 [Acetaminophen],~35,~350
,,"Cn1c(=O)c2c(ncn2C)n(C)c1=O [caffeine, Caffeine]",~25,~25
